We go through one compound from patent US20250313527A1, “AMPHIPHILIC LIPID INCLUDING TERTIARY AMINE N-OXIDE GROUP, LIPOSOMAL DRUG-DELIVERY SYSTEM, AND USE OF AMPHIPHILIC LIPID” (HANGZHOU TITO BIOTECHNOLOGY PARTNERSHIP ENTERPRISE (LIMITED …, priority 2022, published 2025).

The series can be described thus: Plasma clearance and tissue distribution (in vivo imaging of DiR fluorescence). To be noted: HepG2 tumor-bearing BALB/c nude mice, intravenous injection, FIG. 12 to FIG. 13. As to the method: Female BALB/c nude mice bearing HepG2 subcutaneous tumors (about 70 mm^3) were randomly divided into three groups with 3 mice in each group, and intravenously injected with DiR, ^DiRODML, or ^DiRODEL. 24 h later, blood was collected from the orbital veins of mice. 500 μL of a blood sample was taken and tested by a small animal in vivo imaging instrument for a fluorescence intensity. Mice were dissected, and tissues such as a heart, a liver, a spleen, a lung, a kidney, an intestine, and a tumor were collected. Each tissue was detected by a small animal in vivo imaging instrument for a fluorescence intensity.

`CCCCCCCCCCCCCCCCCCN1/C(=C/C=C/C=C/C=C/C2=[N+](CCCCCCCCCCCCCCCCCC)c3ccccc3C2(C)C)C(C)(C)c2ccccc21.[I-]` [DiR]: the “DiR fluorescence signal in the blood or tissues” value is recorded as “Almost no fluorescence signal”.
